Laboratory results from patent US5516651A, “Nucleic acids encoding calcitonin receptor and uses thereof” (The General Hospital Corporation, priority 1991, dated 1996).
Numbering of substitutions follows the chain as printed. Each block holds one molecule with its values, some of them ahead of it.

What was measured:
human CTR [1] = target: T1, human CTR (Homo sapiens, UniProt P30988, L447P/S166F); test: cAMP assay in COS-M6 cells transfected with human CTR cDNA; type: cell-based
T1 construct: expressed in transfected cells; host or cells: COS-M6 (COS-7 subclone)
T1 sequence (P30988 25-490 isoform P30988-1 S166F/L463P): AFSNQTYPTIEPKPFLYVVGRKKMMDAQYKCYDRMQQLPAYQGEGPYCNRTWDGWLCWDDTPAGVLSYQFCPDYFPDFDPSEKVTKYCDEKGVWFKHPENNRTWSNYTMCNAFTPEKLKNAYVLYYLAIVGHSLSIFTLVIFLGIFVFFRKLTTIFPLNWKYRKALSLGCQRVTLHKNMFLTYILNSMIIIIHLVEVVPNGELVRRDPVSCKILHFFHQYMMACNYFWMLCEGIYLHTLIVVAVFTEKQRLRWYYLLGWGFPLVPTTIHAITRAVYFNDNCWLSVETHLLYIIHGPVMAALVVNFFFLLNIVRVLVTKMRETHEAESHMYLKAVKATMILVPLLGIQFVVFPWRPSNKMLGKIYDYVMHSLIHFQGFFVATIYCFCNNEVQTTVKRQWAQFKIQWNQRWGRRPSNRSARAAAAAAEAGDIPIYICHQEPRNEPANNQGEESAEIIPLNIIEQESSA
Experimental: Plasmid DNA was used to transfect COS-M6 cells growing in 10 cm petri dishes (Falcon, Lincoln Park, N.J.) using the DEAE-dextran/chloroquine procedure (Seed and Aruffo, 1987, Proc. Natl. Acad. Sci. USA 84:3365). Forty-eight hours after transfection, cells were incubated in the presence of either iodinated calcitonin for ligand binding studies, or unlabeled calcitonin for the assay of intracellular cAMP.
(§1) BIN-67 cells or COS-M6 cells were grown in 10 cm petri dishes. Forty eight hours before the cAMP assay, the COS-M6 cells were transfected with either human CTR cDNA, or with β-galactosidase cDNA which served as a control. After 24 hours, the transfected COS-M6 cells and the BIN-67 cells were trypsinized and transferred to plastic trays containing 24 16 mm wells (Falcon) at an initial plating density of 5×10^4 cells/well. To test for hormone-induced cAMP responses, the medium was removed from each well and the cells were washed with PBS supplemented with calcium and magnesium. Triplicate groups of cells were incubated for 20 minutes at 37° C. at room temperature with either test buffer [PBS supplemented with calcium, magnesium, 0.25% bovine serum albumin, 11 mM glucose and 1 mM 3-isobutyl-methyl-xanthine (IBMX)], or with 4 mM isoproterenol or peptide hormone at the appropriate concentrations. Reactions were stopped by placing the culture plates in a water bath at 100° C. until all liquid had evaporated. The plates were stored at -20° C. until assayed. The cAMP assay was performed by adding 1.0 ml of 50 mM sodium acetate buffer, pH 6.2, to each well. Dried cells were scraped into this buffer, transferred to glass tubes and centrifuged at 500×g for 10 minutes. Aliquots of supernatant were assayed for cAMP using a radioimmunoassay kit (New England Nuclear/Dupont cAMP [^125 I] Radioimmunoassay Kit, Dupont).

[2] = test system: β-galactosidase transfected COS cells; test: cAMP response in mock (β-galactosidase) transfected COS cells; type: cell-based; details: for activation of adenylate cyclase / increase of cAMP levels: β-galactosidase (mock) transfected COS cells; for increase in cAMP after stimulation with calcitonin: COS cells transfected with β-galactosidase
Experimental: (§2) The cloned porcine receptor is functionally coupled to increased intracellular cAMP (FIGS. 2A and 2B). A 4-fold increase in the concentration of intracellular cAMP was observed after incubation of porcine CTR-transfected COS cells with calcitonin, but there was no increase when cells were transfected with β-galactosidase and subsequently stimulated with calcitonin.
as §1

[3] = target: T2, porcine calcitonin receptor (CTR) (Sus scrofa, UniProt P25117); type: cell-based
T2 construct: expressed in transfected cells; host or cells: COS cells
T2 sequence (P25117 30-482 isoform P25117-2 K186L): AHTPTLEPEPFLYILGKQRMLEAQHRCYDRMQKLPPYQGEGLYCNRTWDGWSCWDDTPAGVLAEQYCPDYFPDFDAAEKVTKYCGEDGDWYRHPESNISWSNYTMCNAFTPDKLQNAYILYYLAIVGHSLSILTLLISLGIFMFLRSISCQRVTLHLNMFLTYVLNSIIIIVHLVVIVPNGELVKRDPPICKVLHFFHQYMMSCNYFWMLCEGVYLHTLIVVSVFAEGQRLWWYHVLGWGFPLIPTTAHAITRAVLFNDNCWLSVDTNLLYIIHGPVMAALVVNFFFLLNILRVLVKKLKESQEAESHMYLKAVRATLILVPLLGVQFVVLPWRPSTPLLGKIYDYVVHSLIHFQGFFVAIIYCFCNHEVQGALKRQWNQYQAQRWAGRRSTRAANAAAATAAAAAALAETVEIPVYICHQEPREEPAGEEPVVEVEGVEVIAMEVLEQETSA
Experimental: as §2
as §1, with “The plates were stored at -20° C. until assayed. The cAMP assay was performed by adding 1.0 ml of 50 mM sodium acetate buffer, pH 6.2, to each well. Dried cells were scraped into this buffer, transferred to glass tubes and centrifuged at 500×g for 10 minutes. Aliquots of supernatant were assayed for cAMP using a radioimmunoassay kit (New England Nuclear/Dupont cAMP [^125 I] Radioimmunoassay Kit, Dupont).” left out

human CTR [4] = target: T1, human CTR; test: Radioligand binding to COS-M6 cells transfected with human CTR cDNA; details: for competition for binding with radioiodinated salmon or human calcitonin: COS cells transfected with human CTR cDNA
Experimental: (§3) Human small ovarian cell carcinoma cells (BIN-67) were grown in 10 cm petri dishes in Dulbecco's modified Eagle's medium (DMEM) supplemented with 20% (vol/vol) heat inactivated fetal calf serum (GIBCO) and enriched with 25% Ham's F12 medium (GIBCO). Cells at near confluency, were passed approximately twice a week by trypsinization using 0.25% trypsin (GIBCO). Radioligand binding assays were performed in triplicate as follows. The cells were washed, trypsinized and counted in an automated cell counter (Coulter, Hialeah, Fla.). […] The mixture was incubated for 14-16 hours at 4° C. The cells were washed by layering 100 μl of cell suspension over 400 μl of 10% sucrose (wt/vol) in a mini-microfuge tube (Bio-Rad) and centrifuging at maximum speed in a microfuge for three minutes to pellet the cells. The supernatant was removed by aspiration, and the portion of the tube containing the cell pellet was cut off and assayed for radioactive content in a gamma counter (TM Analytic, Elk Grove Village, Ill.). Ligand binding to COS-M6 cells transfected with a human CTR-containing plasmid was performed using the same technique.

[5] = target: T2, porcine calcitonin receptor (CTR); test: Radioiodinated salmon calcitonin binding to COS cells transfected with porcine CTR cDNA
Description: (§4) Radioiodinated salmon calcitonin binds to LLC-PK1 cells and to COS cells transfected with the cloned porcine calcitonin receptor (CTR) cDNA (FIGS. 1A and 1B). […] Bovine parathyroid hormone (1-34) [PTH(1-34)]

[6] = target: T3, calcitonin binding sites of BIN-67 cells (Homo sapiens, UniProt P30988); test: Radioligand binding of salmon and human calcitonin to BIN-67 cells; details: for displacement of radiolabeled salmon or human calcitonin binding: concentrations as high as 10^-5 M
T3 construct: native BIN-67 cells (0.42 nM); endogenous in cells; host or cells: BIN-67 (human ovarian small cell carcinoma)
T3 sequence (P30988 25-490 isoform P30988-1 limits assumed): T1 sequence (P30988 25-490 isoform P30988-1 S166F/L463P) with F142S, P439L
Experimental: as §3

BIN-67 cells = test: cAMP assay in BIN-67 cells; type: cell-based, human; details: read-out: 50% maximal effective concentration (EC50) for cAMP increase
Experimental: as §1, with “Aliquots of supernatant were assayed for cAMP using a radioimmunoassay kit (New England Nuclear/Dupont cAMP [^125 I] Radioimmunoassay Kit, Dupont).” left out

[7] = target: T4, calcitonin receptors of LLC-PK1 cells (Sus scrofa, UniProt P25117); test: Radioiodinated calcitonin binding to LLC-PK1 cells (Scatchard); parameters: species or system porcine; details: FIG. 1A, read-out: apparent dissociation constant (Kd)
T4 construct: endogenous in cells; host or cells: LLC-PK1
T4 sequence (P25117 30-482 isoform P25117-2 limits assumed): T2 sequence (P25117 30-482 isoform P25117-2 K186L) with L157K
Description: The porcine calcitonin receptor was cloned by expression in COS cells, using a strategy generally described in Lin et al., 1991, Proc. Natl. Acad. Sci. USA 88:3185. […] Pools of mini-prep cDNA (Sambrook et al., 1989, Molecular Cloning: A Laboratory Manual, Cold Spring Harbor Laboratory, N.Y.) containing 10^4 recombinants were transfected into COS cells and screened for binding to radioiodinated salmon calcitonin by emulsion autoradiography (Gearing et al., 1989, EMBO 8:3667). After screening 30 pools representing 3×10^5 clones, two positive pools were identified from which two positive clones with cDNA inserts 2.2 and 3.9 kb in length were isolated. The 2.2 kb clone (3JS-14-FI) was a truncated version of the 3.9 kb clone (2B5-0-I) but encoded the same open reading frame.
as §4

[8] = target: T5, calcitonin receptors of BIN-67 cells (Homo sapiens, UniProt P30988); test: Emulsion autoradiography of BIN-67 cells with [125I]-salmon calcitonin; type: binding
T5 construct: native BIN-67 cells (0.42 nM); endogenous in cells; host or cells: BIN-67 (human ovarian small cell carcinoma)
T5 sequence (P30988 25-490 isoform P30988-1 limits assumed): T1 sequence (P30988 25-490 isoform P30988-1 S166F/L463P) with F142S, P439L
Experimental: Cells were grown on glass chamber slides (Nunc, Kamstrup, DK). The medium was removed by aspiration and the cells were incubated in binding buffer (PBS supplemented with 11 mM glucose, 0.5% bovine serum albumin) with [^125 I]-salmon calcitonin (200 pM) with or without 10^-6 M unlabeled salmon calcitonin (Sigma). After 5 washes in ice cold PBS supplemented with calcium and magnesium, the cells were fixed in PBS plus 2% formaldehyde, coated with Kodak NTB2 emulsion and exposed for 1-3 weeks at 4° C., after which they were developed and counterstained with Giemsa.

Molecule: CC(C)NCC(O)c1ccc(O)c(O)c1 (stereo not drawn) [isoproterenol]
cAMP response (human CTR [1]; FIG. 7C): increased cAMP levels
activation of adenylate cyclase / increase of cAMP levels [2]: increased cAMP levels
activation of adenylate cyclase / increase of cAMP levels ([2]; listed as Isoproterenol): activated adenylate cyclase
activation of adenylate cyclase ([3]; porcine CTR-transfected cells): activated adenylate cyclase

Molecule: human calcitonin
maximal binding ([6]; human calcitonin binding to BIN-67 cells, FIG. 6C): 1.92×10^4 cpm per sample
EC50 (BIN-67 cells): ~3 nM

Molecule: secretin
cAMP response (human CTR [1]; concentrations up to 10^-6 M): failed to induce a response
competition for binding with radioiodinated salmon or human calcitonin (human CTR [4]): failure of other hormones, including PTH or secretin, to compete for binding
displacement of radiolabeled salmon or human calcitonin binding ([6]; BIN-67 cells): failed to displace

Continued, in another order:

cAMP response (human CTR [1]; FIG. 7C): failure of PTH to induce a response
competition for binding of radioiodinated salmon calcitonin ([5]; porcine CTR transfectants): did not compete
displacement of radiolabeled salmon or human calcitonin binding ([6]; BIN-67 cells): failed to displace
Molecule: Bovine parathyroid hormone (1-34) [PTH]
competition for binding with radioiodinated salmon or human calcitonin (human CTR [4]): failure of other hormones, including PTH or secretin, to compete for binding

increase in cAMP levels (human CTR [1]; maximal stimulatory concentrations, 20 minutes, IBMX, FIG. 7C): ~4 fold
Kd [7]: ~3 nM
competition of [125I]-salmon calcitonin label by excess unlabeled ligand [8]: competed out all of the label
Kd (human CTR [4]; COS-M6 cells transfected with HCTR-BIN67, read-out: apparent Kd (Scatchard analysis)): 0.44 nM
Kd ([5]; COS cells transfected with porcine CTR cDNA, FIG. 1B, read-out: apparent Kd): ~6 nM
Kd ([6]; BIN-67 cells, radiolabeled ligand, 4° C., read-out: Kd (Scatchard analysis)): 0.42 nM
IC50 ([6]; read-out: apparent 50% inhibitory concentration (IC50), BIN-67 cells, [125I]human calcitonin competed with unlabeled ligand): 0.6 to 0.7 nM
EC50 (BIN-67 cells): ~0.7 nM
increase in concentration of intracellular cAMP ([3]; cos cells, 20 min): 4 fold
Molecule: salmon calcitonin
increase in cAMP after stimulation with calcitonin [2]: failed to increase cAMP levels above control levels
increase in cAMP after stimulation with calcitonin ([2]; listed as calcitonin): no increase
